Where a name gives a salt, the structure may show the parent alone. Read-outs that look alike come from different tables or passages of the source.
Test system: amyloid β production in transfected H4 (human neuroglioma) cells stably expressing APP constructs
Assay: In vitro cell-based assay of inhibitors of amyloid β production (ELISA)
Method in brief: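 Plate wt/variant APP cells; ≥6 h later swap to medium + compound (10-100 μM screen); incubate ~16 h; sample medium; Aβ ELISA with C-terminal capture / N-terminal detection Abs; quantify vs Aβ standard curve.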

[1] = Homo sapiens, 16 h, transfected H4 cells stably expressing APP, approximately 16 hours incubation, amyloid β in medium by ELISA, read-out: ACTIVITY (IC50, inhibition of amyloid β production)
[2] = Homo sapiens, 16 h, transfected H4 cells expressing APP, approximately 16 hours incubation, amyloid β in medium by ELISA, read-out: ACTIVITY (IC50, inhibition of amyloid β production)
[3] = transfected H4 cells stably expressing APP, approximately 16 hours incubation, amyloid β in medium by ELISA, read-out: ACTIVITY (IC50, inhibition of amyloid β production)
[4] = transfected H4 cells stably expressing APP constructs, approximately 16 hours incubation, amyloid β in medium by ELISA, read-out: ACTIVITY (IC50, inhibition of amyloid β production)
[5] = transfected H4 cells stably expressing APP, approx. 16 h incubation, amyloid β in medium by ELISA, read-out: ACTIVITY (IC50, inhibition of amyloid β production)
[6] = Homo sapiens, 16 h, transfected H4 cells stably expressing APP constructs, approximately 16 hours incubation, amyloid β in medium by ELISA, read-out: ACTIVITY (IC50, inhibition of amyloid β production)
[7] = Table B, transfected H4 cells stably expressing APP, approximately 16 hours incubation, amyloid β in medium by ELISA, read-out: ACTIVITY (inhibitory concentration IC50, inhibition of amyloid β production)
[8] = transfected H4 cells stably expressing APP, approximately 16 hours incubation, amyloid β in medium by ELISA, Table B, read-out: ACTIVITY (IC50, inhibition of amyloid β production)

O=S(=O)(c1ccc(Cl)cc1)N(Cc1ccccc1OCCCN1CCCCC1)CC1CCC1 [Example 827, 4-chloro-N-(cyclobutylmethyl)-N-{2-[3-(1-piperidinyl)propoxy]benzyl}benzenesulfonamide hydrochloride]
IC50 [1]: 100 to 500 nM

C[C@H](C(=O)NCCOc1ccccc1)N(c1cc(Cl)ccc1F)S(=O)(=O)c1ccc(Cl)cc1 [Example 1318]
IC50 [2]: > 500 nM

N-{3-[2-({[(4-chlorophenyl)sulfonyl]-2,5-difluoroanilino}methyl)phenoxy]propyl}-2,4-dimethoxy-N-methylbenzamide [Example 834]
IC50 [3]: 100 to 500 nM

O=S(=O)(c1ccc(Cl)cc1)N(Cc1ccccc1OCc1ccncc1)c1ccccc1 [Example 1030, 4-chloro-N-phenyl-N-[2-(4-pyrdinylmethoxy)benzyl]benzenesulfonamide hydrochloride]
IC50 [3]: > 500 nM

O=S(=O)(c1ccc(F)cc1)n1c(-c2ccccc2OCCCN2CCCCC2)cc2ccccc21 [Example 1032, 2-{1-[(4-flurophenyl}sulfonyl]-1H-indol-2-yl}phenyl 3-(1-piperidinyl)propyl ether trifluoroacetate]
IC50 [3]: > 500 nM

C[C@H](C(=O)NCCc1ccccc1F)N(c1cc(Cl)ccc1F)S(=O)(=O)c1ccc(Cl)cc1 [Example 1359]
IC50 [2]: > 500 nM

CCC(C)(C)c1ccc(OCCCCNC(=O)[C@@H](C)N(c2cc(Cl)ccc2F)S(=O)(=O)c2ccc(Cl)cc2)c(C(C)(C)CC)c1 [Example 1348]
IC50 [2]: > 500 nM

4-chloro-N-(2,5-dichlorophenyl)-N-[3-[2-[4-chloro-N-(2,5-dichlorophenyl)-N-[(3-amino)-1(R)-methylpropyl]benzenesulfonamide]-3,4-dioxo-1-cyclobutenyl)amine-1(R)- [Example 1143]
IC50 [4]: 100 to 500 nM

CSC1CCN(CC[C@@H](C)N(c2cc(Cl)ccc2Cl)S(=O)(=O)c2ccc(Cl)cc2)CC1 [Example 1156, 4-chloro-N-(2,5-dichlorophenyl)-N-[3-[(4-methylthio)-1-piperidinyl]-1(R)-methylpropyl]benzenesulfonamide]
IC50 [4]: 100 to 500 nM

N-{3-[2-(1-{[(4-chlorophenyl)sulfonyl]-2,5-difluoroanilino}methyl)phenoxy]propyl}-N-methyl-2-phenylcyclopropanecarboxamide [Example 759]
IC50 [5]: 100 to 500 nM

C[C@H](CCCN1CCCCC1CS(C)(=O)=O)N(c1cc(Cl)ccc1Cl)S(=O)(=O)c1ccc(Cl)cc1 (stereo partly drawn) [Example 1121, 4-chloro-N-(2,5-dichlorophenyl)-N-[4-[2-[(methylsulfonyl)methyl]-1-piperidinyl]-1(R)-methylbutyl]benzenesulfonamide]
IC50 [6]: 50 to 100 nM

N-{3-[2-({[(4-chlorophenyl)sulfonyl]-2,5-difluoroanilino}methyl)phenoxy]propyl}-N,3-dimethylbenzamide [Example 696]
IC50 [5]: 100 to 500 nM

2-((1R)-1-{[(4-chlorophenyl)sulfonyl]-2,5-difluoroanilino}ethyl)benzyl sec-butylcarbamate [Example 758]
IC50 [5]: 100 to 500 nM

CC(C)C[C@H](NC(=O)CCCC[C@@H](C)N(c1cc(Cl)ccc1F)S(=O)(=O)c1ccc(Cl)cc1)C(=O)O [Example 1263, (R)-4-Chloro-N-(5-chloro-2-fluorophenyl)-N-[6-[N-(S)-[1-(carboxy)-3-methylbutyl]amino]-1-methyl-6-oxohexyl]benzenesulfonamide]
IC50 [4]: 25 to 50 nM

N-{3-[2-(1-{[(4-chlorophenyl)sulfonyl]-2,5-difluoroanilino}ethyl)phenoxy]butyl}-N-ethyl-2-furamide [Example 708]
IC50 [5]: 100 to 500 nM

CC(=O)NCCC[C@@H](C)N(c1cc(Cl)ccc1Cl)S(=O)(=O)c1ccc(Cl)cc1 [Example 1113, 4-chloro-N-(2,5-dichlorophenyl)-N-[4-(acetylamino)-1(R)-methylbutyl]benzenesulfonamide]
IC50 [6]: 25 to 50 nM

O=S(=O)(c1ccc(Cl)cc1)N(Cc1ccccc1OCCCCCN1CCCCC1)c1ccccc1 [Example 976, 4-chloro-N-phenyl-N-(2-{[5-(1-piperidinyl)pentyl]oxy}benzyl)benzenesulfonamide hydrochloride]
IC50 [1]: > 500 nM

C[C@H](CCC[S+]([O-])C(C)(C)C)N(c1cc(Cl)ccc1CO)S(=O)(=O)c1ccc(Cl)cc1 (stereo partly shown) [Example 1221]
IC50 [4]: ≤ 25 nM

C[C@H](CCS(=O)(=O)CC(=O)O)N(c1cc(Cl)ccc1Cl)S(=O)(=O)c1ccc(Cl)cc1 [Example 183, (6R)-6-[(2,5-dichlorophenyl)[(4-chlorophenyl)sulfonyl]amino]-3-thioheptanoic Acid, 3,3 Dioxide]
IC50 [7]: 25 to 50 nM

C[C@H](COC(=O)NCCCn1cnnn1)N(c1cc(Cl)ccc1Cl)S(=O)(=O)c1ccc(Cl)cc1 [Example 1248, 4-Chloro-N-(2,5-dichlorophenyl)-N-[2-[[N′-[3-(1H-tetrazol-1-yl)propylamino]carbonyl]oxy]-(R)-1-methylethyl]benzenesulfonamide]
IC50 [4]: ≤ 25 nM

O=S(=O)(c1ccc(Cl)cc1)N(Cc1ccccc1OCCCN1CCCCC1)c1cccc(Br)c1 [Example 237, N-(3-bromophenyl)-4-chloro-N-{2-[3-(1-piperidinyl)propoxy]benzyl}benzenesulfonamide Hydrochloride]
IC50 (read-out: ACTIVITY (inhibitory concentration IC50, inhibition of amyloid β production)): 25 to 50 nM

CSC1CCN(CCC[C@@H](C)N(c2cc(Cl)ccc2Cl)S(=O)(=O)c2ccc(Cl)cc2)C1 (stereo partly shown) [Example 1148]
IC50 [4]: 100 to 500 nM

C[C@@H]1CCC[C@H](C)N1CCCOc1ccccc1CN(c1ccccc1)S(=O)(=O)c1ccc(Cl)cc1 [Example 306, 4-Chloro-N-(2-{3-[(2R,6S)-2,6-dimethylpiperidinyl]propoxy}benzyl)-N-phenylbenzenesulfonamide Hydrochloride]
IC50 [8]: 50 to 100 nM

CC(CCCC(C)(C)O)NC(=O)[C@@H](C)N(c1cc(Cl)ccc1F)S(=O)(=O)c1ccc(Cl)cc1 (stereo partly shown) [Example 1335]
IC50 [2]: > 500 nM

C[C@H](C(=O)N[C@@H](CO)CSCc1ccccc1)N(c1cc(Cl)ccc1F)S(=O)(=O)c1ccc(Cl)cc1 [Example 1343]
IC50 [2]: > 500 nM

CSc1ccc(N(Cc2ccccc2OCCCN2CCCCC2)S(=O)(=O)c2ccc(Cl)cc2)cc1 [Example 1019, 4-chloro-N-[4-(methylsulfanyl)phenyl]-N-{2-[3-(1-piperidinyl)propoxy]benzyl}benzenesulfonamide hydrochloride]
IC50 [1]: > 500 nM

C[C@H](CCCC(=O)O)N(c1cc(Cl)ccc1Cl)S(=O)(=O)c1ccc(Cl)cc1 [Example 36, (5R)-5-[(2,5-dichlorophenyl][(4-chlorophenyl)sulfonyl]-amino]hexanoic Acid]
IC50 [7]: ≤ 25 nM

CN(CCCOc1ccccc1CN(c1cc(F)ccc1F)S(=O)(=O)c1ccc(Cl)cc1)C(=O)CCCCCN [Example 366, 6-Amino-N-{3-[2-({[(4-chlorophenyl)sulfonyl]-2,5-difluoroanilino}methyl)phenoxy]propyl]-N-methylhexanamide Hydrochloride]
IC50 [8]: 50 to 100 nM

O=S(=O)(c1ccccc1)N(Cc1ccccc1CCCCN1CCCCC1)c1ccccc1 [Example 1005, N-phenyl-N-{2-[4-(1-piperidinyl)butyl]benzyl}benzenesulfonamide]
IC50 [1]: > 500 nM

(2E)-3-[2-({[(4-chlorophenyl)sulfonyl]anilino}methyl)phenyl]-2-propenoic acid [Example 1035]
IC50 [3]: > 500 nM

O=S(=O)(c1ccc(Cl)cc1)N(Cc1ccccc1C#CCn1ccnc1)c1cc(F)ccc1F [Example 1051, 4-chloro-N-(2,5-difluorophenyl)-N-{2-[3-(1H-imidazol-1-yl)-1-propynyl]benzyl}benzenesulfonamide hydrochloride]
IC50 [1]: > 500 nM

4-chloro-N-(2,5-difluorophenyl)-N-{2-[3-(1-piperidinyl)propyl]benzyl}-N-phenylbenzenesulfonamide [Example 1044]
IC50 [3]: > 500 nM

N-{3-[2-({[(4-chlorophenyl)sulfonyl]-2,5-difluoroanilino}methyl)phenoxy]propyl}-N,4-dimethyl-3-nitrobenzamide [Example 907]
IC50 [3]: > 500 nM

O=S1(=O)c2cccc3cccc(c23)N1Cc1ccccc1OCCCN1CCCCC1 [Example 1024, 2-{2-[3-(1-piperidinyl)propoxy]benzyl}-2H-naphtho[1,8-cd]isothiazol 1,1-dioxide hydrochloride]
IC50 [1]: > 500 nM

O=S(=O)(c1ccc(Cl)cc1)N(Cc1ccccc1OCCCS)c1ccccc1 [Example 1018, 4-chloro-N-phenyl-N-[2-(3-sulfanylpropoxy)benzyl]benzenesulfonamide]
IC50 [1]: > 500 nM

C[C@H](COC(=O)NCCc1c[nH]cn1)N(c1cc(Cl)ccc1F)S(=O)(=O)c1ccc(Cl)cc1 [Example 1245, 4-Chloro-N-(2-fluoro-5-chlorophenyl)-N-[2-[[N′-[2-(1H-imidazol-4-yl)ethylamino]carbonyl]oxy]-(R)-1-methylethyl]benzenesulfonamide]
IC50 [4]: ≤ 25 nM

O=S(=O)(/C=C/c1ccccc1)N(Cc1ccccc1OCCCN1CCCCC1)c1cc(Cl)ccc1Cl [Example 260, (E)-N-(2,5-dichlorophenyl)-2-phenyl-N-{2-[3-(1-piperidinyl)propoxy]benzyl}ethenesulfonamide hydrochloride]
IC50 [7]: 25 to 50 nM

From US6967196B1, “Sulfonamide compounds and uses thereof” (Bristol-Myers Squibb Company, priority 1999, dated 2005)
